Converted amounts (≈) assume the structure as drawn. Like-named read-outs stand apart in the source and are kept apart here.
Key:
[1] = physchem; conditions: pH 7.4, LogD, pH 7.4
Procedure: Determination of Distribution Coefficient (LogD, pH 7.4)
coefficient (or LogD) is a logarithm of the ratio of drug concentrations in two immiscible solvents,
typically pH-buffered water and n-octanol. It is a measure of hydrophobic/hydrophilic properties of
a given molecule. The partition of test compounds is determined using a shake-flask method, which
involves mixing of a certain amount of the solute of interest in defined volumes of n-octanol and an
aqueous buffer of choice followed by equilibration of the mixture by incubation with efficient
mixing. Then, the distribution of the compounds in each solvent was controlled using LC-MS/MS.
Phosphate buffered saline, tablet (Sigma-Aldrich, USA; Cat # P4417)
Acetic acid (Enamine, Ukraine)
1.1 mL microtubes in microracks, pipettor tips (Thermo Scientific, USA).
National Scientific MicroTube™ Rack (Thermo Fisher Scientific, USA; Cat # TN094612R)
Gradient HPLC system (Shimadzu, Japan)
Triple quadrapole mass-detector API 3000 with TurboIonSpray Ion Source (AB Sciex, Canada)
MTR22 Multi Mix Rotator (UNICO, USA)
Laboratory Centrifuge, Sigma 4-15C, Qiagen (SIGMA GmbH, Germany)
Water purification system Millipore Milli-Q Gradient A10 (Millipore, France)
All measurements were performed using a Shimadzu Prominence HPLC system including a
vacuum degasser, gradient pumps, a reverse phase column, a column oven and an autosampler.
Mass spectrometric analysis was performed using an API 4000 QTRAP mass spectrometer from
Applied Biosystems/MDS Sciex (AB Sciex) with Turbo V ion source and TurboIonspray
interface. The TurboIonSpray ion source was used in both positive and negative ion modes.
Acquisition and analysis of the data were performed using Analyst 1.6.3 software.
Incubations were carried out in Eppendorf-type polypropylene microtubes in triplicates. A 2.5 μL
aliquot of 20 mM DMSO stock of a test compound was added into the previously mutually
saturated mixture containing 500 μL of PBS (pH 7.4) and 500 μL of octanol. The solution was
allowed to mix in a rotator for 1 hour at 30 rpm. Phase separation was assured by centrifugation for
2 min at 6000 rpm. The octanol phase was diluted 100-fold with 40% acetonitrile, and the aqueous
phase (PBS buffer) was diluted 10-fold with 40% acetonitrile. The samples (both phases) were
analyzed using an HPLC system coupled with a tandem mass spectrometer.
Calculations of the partition ratios were carried out using the equation below.
where: – peak area of the analyte in octanol phase
– peak area of the analyte in PBS buffer
– dilution coefficient for octanol phase dp – dilution coefficient for aqueous phase

[2] = Kinetic solubility in phosphate-buffered saline, pH 7.4; format: physicochemical; conditions: 25 °C, pH 7.4, aqueous buffer, kinetic from dmso stock; for solubility at 2 h: PBS solubility
Procedure: Analysis of Aqueous Solubility […]
compound (Ondansetron) were assessed for kinetic solubility in phosphate -buffered saline, pH 7.4.
Phosphate buffered saline, pH 7.4 (Sigma -Aldrich, USA; Cat #P3813) […]
MultiScreen HTS 96 Well Filter Plates (Millipore, Ireland; Cat # MSSLBPC10) […]
Matrix Multichannel Electronic Pipette 2-125 μL, 5-250 μL, 15-1250 μL (Thermo Scientific, USA; […]
Vacuum pump (Millipore, USA; Model # XX5500000)
The measurements were performed using SpectraMax Plus reader in UV -Vis mode. Acquisition and […]
The measurements were performed using SpectraMax Paradigm reader in UV-Vis mode.
Acquisition and analysis of the data were performed using SoftMax Pro v.5.4 (Molecular Devices) […]
Kinetic solubility assay was performed according to the Enamine’s aqueous solubility SOP. Briefly, using a 20 mM stock solution of the compound in 100% DMSO dilutions were prepared to a theoretical concentration of 400 μM in duplicates in phosphate-buffered saline pH 7.4 […]
compound dilutions in PBS were further allowed to equilibrate at 25 °C on a thermostatic shaker for two hours and then filtered through HTS filter plates using a vacuum manifold. The filtrates of test compounds were diluted 2-fold with acetonitrile with 2% DMSO before measuring.
In parallel, compound dilutions in 50% acetonitrile/PBS were prepared to theoretical concentrations […]
calibration curves. Ondansetron was used as reference compound to control proper assay performance. 200 μl of each sample was transferred to 96-well plate and measured in 230-550 nm range with 5 nm step. The effective range of this assay is approximately 2-400 μM and the […]
The concentrations of compounds in PBS filtrate are calculated using a dedicated Microsoft Excel calculation script. Proper absorbance wavelengths for calculations are selected for each compound manually based on absorbance maximums (absolute absorbance unit values for the minimum and maximum concentration points within the 0 – 3 OD range). Each final dataset is visually evaluated by the operator, and goodness of fit (R2) is calculated for each calibration curve. […]
samples were diluted 2-fold with acetonitrile containing internal standard and were analyzed using the HPLC system coupled with a tandem mass spectrometer. The effective range of this assay is […]

[3] = tested on: Aspergillus niger (strain VURV-F 822); assay: Antifungal disk diffusion method; format: cell-based
Procedure: Antifungal activity of the synthetic compounds using disk diffusion methods The compounds were tested for plant pathogens Aspergillus niger (strain VURV-F 822), which was received from Culture collection of microorganisms of Crop Research Institute (Prague, Czech […]
The synthetic compounds' antifungal activity was evaluated using a disk diffusion assay for testing filamentous fungi (CLSI M51-A) and broth microdilution antifungal susceptibility testing (EUCAST E.DEF 7.3.1; CLSI M38-A2)
[CLSI M51-A. Method for Antifungal Disk Diffusion Susceptibility Testing of Nondermatophyte Filamentous Fungi; Approved Guideline.CLSI document M51-A. Wayne, PA:
Clinical and Laboratory Standards Institute; 2010. This method is standardized for Altenaria, Aspergillus, Bipolaris, Fusarium, order Mucorales, etc.]
[CLSI M38-A2. 2008. Reference method for broth dilution antifungal susceptibility testing of filamentous fungi, 2nd ed Approved standard M38 -A2 Clinical and Laboratory Standards Institute, […]
Antifungal disk diffusion method
The solutions of fungicides and their analogues were diluted in dimethyl sulfoxide (DMSO) to […]
mg/mL for each test component. Sterile paper disks (ASPECT, Ukraine) were soaked with 10 μl of a solution of the appropriate fungicide from the highest concentration to the lowest.
The fungal strains were cultured on Petri dishes with Saburo dextrose agar (Condalab, Spain) and incubated at 25 °C for 5 days. Sterile Dulbecco's phosphate -buffered saline (DPBS) with 0,1 % Tween 20 was used to cover colonies of fungus for obtained conidia l suspension. Suspension of conidia was adjusted to inoculums 2×10^5 conidia/mL by sterile DPBS.
For antifungal disk diffusion test we used square Petri dishes (FALCON A Corning Brand, USA). The conidial suspension (0.5 mL) was added to Petri dishes with Saburo dextrose agar. The suspension was evenly distributed over the surface of the nutrient medium with a glass spatula.
After the surface of the inoculated medium was dry, the disks with different concentrations of testing compounds were added to the Petri dishes. Each compound was tested in triplicate at different concentrations. Growth control was a disk with 10 μl of DMSO, which was used for test […]
Petri dishes incubated at 25 °C for 72 h. The test compounds at known concentrati on into contact with an inoculated medium then exert a growth-inhibiting effect then a clear zone (the zone of […]
inhibition) appears around the test product. The diameter of a clear zone around the well is […]
If the fungal strain is susceptible to the antifungal agent, then a zone of inhibition appears on the agar plate. If it is resistant to the test compound, then no zone is evident. The size of the zone of inhibition is usually related to the level of antifungal activity present in the compound – a larger […]
The growth rate of all strains for each concentration of test compounds was determined visually and compared with the growth of control.
Broth microdilution antifungal susceptibility testing
A 96-well CELLSTAR plate (sterile, flat-bottomed, polystyrene, transparent) was used to determine MIC by broth microdilution method. Also, dabble straight RPMI-1640 medium with 2% glucose (2x RPMI 2%G) was used for this method. Spore suspension for plate inoculation was prepared according to the method described above for the disc diffusion method.
The each well in the plate contained 49 μl of medium (2x RPMI 2%G), 50 μl of inoculum (prepared in DPBS) and 1 μl of the stock solution of the test substance. Positive control wells contained 50 μl medium and 50 μl inoculum, and sterile control wells contained 50 μl medium and […]
To determine the MIC by the microdilution method, a series of stock solutions of fungicides and their analogues in DMSO with the following concentrations were prepared: 3.2 mg/mL, 1.6 mg/mL, […]
1 μl of the stock solutions of the test substances were added to each well to obtain the following […]
Immediately after adding all the components to the plates, the optical density was measured at […]

[4] = Metabolic stability in human liver microsomes; conditions: both; for remaining at 40 min, 2 µM: Mean of 2, 40 min
[5] = Table S5, injection 1, octanol/PBS pH 7.4
[6] = Table S5, injection 2, octanol/PBS pH 7.4
[7] = Table S5, injection 3, octanol/PBS pH 7.4

SMILES: COC(=O)Nc1nc2ccc(C(=O)c3ccccc3)cc2[nH]1 [Mebendazole]
- logD at 1 h [1]: 2.82

SMILES: Cn1cc(C(=O)Nc2ccccc2-c2cc(F)c(F)c(F)c2)c(C(F)F)n1 [Fluxapyroxad, fluxapyroxad]
- solubility kinetic at 2 h [2]: 25 µM (≈ 9.53 µg/mL)
- zone of inhibition at 4 µg/mL ([3]; Concentration 0.004 mg/mL, 0 = absence of antifungal activity, Boscalid, Fluxapyroxad, Bixafen marked st, read-out: Diameter of inhibition zone): 8 ± 2 mm
- zone of inhibition at 8 µg/mL ([3]; Concentration 0.008 mg/mL, 0 = absence of antifungal activity, read-out: Diameter of inhibition zone): 11.8 ± 1.25 mm
- zone of inhibition at 16 µg/mL ([3]; Concentration 0.016 mg/mL, 0 = absence of antifungal activity, read-out: Diameter of inhibition zone): 14.5 ± 0.5 mm
- zone of inhibition at 30 µg/mL ([3]; Concentration 0.03 mg/mL, 0 = absence of antifungal activity, (±)-29 marked st, read-out: Diameter of inhibition zone): 18.2 ± 0.4 mm
- zone of inhibition at 60 µg/mL ([3]; Concentration 0.06 mg/mL, 0 = absence of antifungal activity, Fluxapyroxad, Bixafen, (±)-29 marked st, read-out: Diameter of inhibition zone): 22.2 ± 1.25 mm
- zone of inhibition at 120 µg/mL ([3]; Concentration 0.12 mg/mL, (±)-28 marked st (static growth), read-out: Diameter of inhibition zone): 25.2 ± 1.5 mm
- zone of inhibition at 250 µg/mL ([3]; Concentration 0.25 mg/mL, (±)-28 marked st (static growth, secondary growth of mycelium), read-out: Diameter of inhibition zone): 30 ± 0.5 mm
- zone of inhibition at 500 µg/mL ([3]; Concentration 0.5 mg/mL, 10 μl per disk, read-out: Diameter of inhibition zone): 34.5 ± 0.75 mm
- zone of inhibition at 1000 µg/mL ([3]; Concentration 1 mg/mL, 10 μl per disk, read-out: Diameter of inhibition zone): 39.2 ± 2.25 mm
- zone of inhibition at 2000 µg/mL ([3]; Concentration 2 mg/mL, 10 μl per disk, read-out: Diameter of inhibition zone): 40.8 ± 1.6 mm
- MIC ([3]; disk diffusion, small zones of inhibition with secondary mycelial growth, read-out: minimum inhibitory concentration): 4 µg/mL (≈ 10.5 µM)
- D [5]: 3.37E+03
- D [6]: 2.99E+03
- D [7]: 3.24E+03

SMILES: Cc1nc2c([nH]1)CCN(C(=O)c1ccc(NC(=O)C3CC4CC3(c3ccccc3)C4)cc1)c1ccccc1-2 (stereo not drawn) [Compound 26]
- solubility kinetic at 2 h [2]: 14 µM (≈ 7.04 µg/mL)
- solubility at 2 h ([2]; pH 7.4, Incubation 1): 15 µM (≈ 7.54 µg/mL)
- solubility at 2 h ([2]; pH 7.4, Incubation 2): 14 µM (≈ 7.04 µg/mL)
- solubility at 2 h ([2]; pH 7.4, Mean): 14 µM (≈ 7.04 µg/mL)
- D [5]: 9.55E+03
- D [6]: 1.25E+04
- D [7]: 1.36E+04
- logD at 1 h [1]: 3.98
- microsomal CLint at 2 μM ([4]; human liver microsomes (pooled), pH 7.4): 12 µL/min/mg
- remaining at 40 min, 2 µM ([4]; liver microsomes (pooled), pH 7.4, % Remaining without cofactor, no NADPH cofactor, Table S6, 1st batch): 109%
- remaining at […], 2 µM ([4]; liver microsomes (pooled), pH 7.4, % Remaining, Mean of 2, 7 min, Table S6, 1st batch): 81%
- remaining at […], 2 µM ([4]; liver microsomes (pooled), pH 7.4, % Remaining, Mean of 2, 15 min, Table S6, 1st batch): 81%
- remaining at 25 min, 2 µM ([4]; liver microsomes (pooled), pH 7.4, % Remaining, Mean of 2, 25 min, Table S6, 1st batch): 83%
- remaining at 40 min, 2 µM ([4]; liver microsomes (pooled), pH 7.4, % Remaining, Table S6, 1st batch): 76%
- k el at 2 µM ([4]; liver microsomes (pooled), pH 7.4, kel, Table S6, 1st batch): 8.33e-05 s⁻¹
- half-life at 2 µM ([4]; liver microsomes (pooled), pH 7.4, t1/2, Table S6, 1st batch): 2.25 h

SMILES: O=C(NC1CCN(CCCCC2(C(=O)NCC(F)(F)F)c3ccccc3-c3ccccc32)CC1)c1ccccc1-c1ccc(C(F)(F)F)cc1 [Lomitapide, lomitapide]
- solubility kinetic at 2 h [2]: 3 µM (≈ 2.08 µg/mL)
- D [5]: 5.98E+08
- D [6]: 3.42E+05
- D [7]: 6.79E+04

— paper PMC10718076, “1,2-Disubstituted bicyclo[2.1.1]hexanes as saturated bioisosteres of ortho-substituted benzene” (Chemical Science, 2023)
